Assay results published in patent US20230263822A1, “MODULATION OF FACTOR 11 EXPRESSION” (Ionis Pharmaceuticals, Inc., priority 2008, published 2023).

How the values were obtained:
Type in all cases: in vivo, BALB/c mice
[1] = tested on: mouse Factor 11 mRNA; assay: Sense-oligonucleotide antidote: Factor 11 mRNA in liver (Example 23); conditions: for Percent inhibition of mouse Factor 11 mRNA compared to PBS control: antisense 40 mg/kg s.c. twice a week for three weeks, ISIS 418026 90 mg/kg single injection where given
Procedure: The effect of the specific sense oligonucleotide to ISIS 404071 as an antidote was tested in BALB/c mice. In a first cohort, ISIS 404071 was administered subcutaneously to BALB/c mice twice a week for three weeks at a dose of 40 mg/kg. In a second cohort, ISIS 404057 was administered subcutaneously to BALB/c mice twice a week for three weeks at a dose of 40 mg/kg. The ISIS 404071 specific antidote, ISIS 418026 ([…]; complementary to ISIS 404071), incorporated herein as SEQ ID NO: 13, was administered to both cohorts subcutaneously in a single injection of 90 mg/kg 48 hours after the final treatment of ISIS 404071 or 404057. In a third cohort, ISIS 404071 was administered subcutaneously to BALB/c mice twice a week for three weeks at a dose of 40 mg/kg. Following the last treatment of ISIS 404071, mice were injected subcutaneously injected with PBS. In a fourth cohort, ISIS 404057 was administered subcutaneously to BALB/c mice twice a week for three weeks at a dose of 40 mg/kg. Following the last treatment of ISIS 404057, mice were injected subcutaneously injected with PBS. Following antidote administration, a set of 4 mice from each cohort were sacrificed at 12 hours, 1 day, 2 days, 3 days, 7 days, and 14 days. Whole liver was collected for RNA analysis and PPP was collected for aPTT analysis.
RNA was extracted from liver tissue for real-time PCR analysis of Factor 11. Results are presented as percent inhibition of Factor 11, relative to PBS control.

[2] = tested on: platelet factor-4 (PF-4); assay: Factor 7a protein antidote: PF-4 in FeCl3 induced VT model (Example 24); conditions: ISIS 404071 20 mg/kg s.c. twice a week for 3 weeks; human Factor 7a 5 μg/kg fifteen minutes before FeCl3 where given
Procedure: The effect of human Factor 7a (Factor VIIa) protein as an antidote for ISIS 404071 was tested in BALB/c mice. […] Thrombus formation was induced with FeCl3 in all of the mice except the first control group. Fifteen minutes before FeCl3 treatment, the first experimental group was treated with 5 μg/kg of human Factor 7a protein antidote (product no. 407act, American Diagnostica Inc.). Two days after their last dose, all mice were anesthetized with 150 mg/kg of ketamine mixed with 10 mg/kg of xylazine administered by intraperitoneal injection.
In mice undergoing FeCl3 treatment, thrombus formation was induced by applying a piece of filter paper (2×4 mm) pre-saturated with 10% FeCl3 solution directly on the vena cava. After 3 minutes of exposure, the filter paper was removed. Thirty minutes after the filter paper application, a fixed length of the vein containing the thrombus was dissected out for platelet analysis.
Real-time PCR quantification of platelet factor-4 (PF-4) was used to quantify platelets in the vena cava as a measure of thrombus formation. Results are presented as a percentage of PF-4 in antidote treated and untreated mice, as compared to the two PBS-treated control groups.

[3] = tested on: blood coagulation; assay: PT and aPTT, combination with warfarin (Example 21)
Procedure: Plasma was collected from each group 5 days after the last dose was administered. […] In a final group of BALB/c mice, PBS was administered subcutaneously twice a week for three weeks, as a control. Plasma was collected 5 days after the last PBS treatment.
PT and aPTT values provided in Table 33 are reported as International Normalized Ratio (INR) values.

[4] = tested on: blood coagulation; assay: PT and aPTT vs warfarin (Example 13); conditions: for PT INR / aPTT INR: PPP two days after final dose
Procedure: In a control group, BALB/c mice were treated with PBS, administered subcutaneously mice twice a week for 3 weeks.
Two days after the final dose was administered, PPP was collected and PT and aPTT assays were performed.
PT and aPTT values provided in Table 16 are reported as International Normalized Ratio (INR) values. […] This ratio was then raised to the power of the International Sensitivity Index (ISI) of the tissue factor used.

[5] = tested on: platelet factor-4 (PF-4); assay: Thrombus formation by PF-4, FeCl3 induced VT model, combination with PLAVIX (Example 26); conditions: ISIS 404071 20 mg/kg, PLAVIX 0 mg/kg
Procedure: The combination of ISIS 404071 and PLAVIX was evaluated in the FeCl3 induced VT mouse model. Four groups of eight BALB/c mice, weighing approximately 25 g each, were treated with 6.25 mg/kg, 12.50 mg/kg, 25.00 mg/kg, or 50.00 mg/kg of PLAVIX. Mice were given two doses of PLAVIX on day one and one dose of PLAVIX on day two, two hours before surgery.
After the last dose of ISIS 404071, mice were treated with 6.25 mg/kg, 12.50 mg/kg, 25.00 mg/kg, or 50.00 mg/kg of PLAVIX. Two doses of PLAVIX were administered to the mice on day one and one dose of PLAVIX was administered on day two, two hours before surgery.
Two control groups of eight BALB/c mice, weighing approximately 25 g each, were not treated with ISIS 404071 or PLAVIX. […] Thrombus formation was induced with FeCl3 in all of the mice except the first […] control groups. All mice were anesthetized with 150 mg/kg of ketamine mixed with 10 mg/kg of xylazine administered by intraperitoneal injection.
After 3 minutes of exposure, the filter paper was removed. Thirty minutes after the filter paper application, a fixed length of the vein containing the thrombus was dissected out for platelet analysis.
Real-time PCR quantification of PF-4 was used to quantify platelets in the vena cava as a measure of thrombus formation. […] Therefore, the combination of anti-platelet therapy with Factor 11 ASO increases antithrombotic activity. Data is presented as percent of PF-4 mRNA as compared to the PBS+ FeCl3 control.

[6] = BALB/c mice, ISIS 404071 25 or 50 mg/kg, warfarin 2 mg/kg
[7] = ISIS 404071 25 mg/kg s.c. twice a week for 3 weeks
[8] = ISIS 404071 50 mg/kg s.c. twice a week for 3 weeks
[9] = BALB/c mice, ISIS 404071 1.25-40 mg/kg, warfarin 0.5-5 mg/kg
[10] = ISIS 404071 1.25 mg/kg subcutaneously twice a week for 3 weeks
[11] = ISIS 404071 5 mg/kg subcutaneously twice a week for 3 weeks
[12] = ISIS 404071 10 mg/kg subcutaneously twice a week for 3 weeks
[13] = ISIS 404071 20 mg/kg subcutaneously twice a week for 3 weeks
[14] = ISIS 404071 40 mg/kg subcutaneously twice a week for 3 weeks

ISIS 404071: antisense oligonucleotide targeted to murine Factor 11 mRNA, TGGTAATCCACTTTCAGAGG, target start site 869 (chemistry not given here)
Percent inhibition of mouse Factor 11 mRNA compared to PBS control ([1]; 12 hours after antidote/PBS): 93%
Percent inhibition of mouse Factor 11 mRNA compared to PBS control ([1]; 1 day after antidote/PBS): 90%
Percent inhibition of mouse Factor 11 mRNA compared to PBS control ([1]; 2 days after antidote/PBS): 89%
Percent inhibition of mouse Factor 11 mRNA compared to PBS control ([1]; 3 days after antidote/PBS): 88%
Percent inhibition of mouse Factor 11 mRNA compared to PBS control ([1]; 7 days after antidote/PBS): 81%
Percent inhibition of mouse Factor 11 mRNA compared to PBS control ([1]; 14 days after antidote/PBS): 67%
inhibition of Factor 11 mRNA over the 14 day observation period ([1]; BALB/c mice, ISIS 404071 40 mg/kg, with or without ISIS 418026 90 mg/kg): progressive decrease in inhibition
PF-4 in vena cava, percentage as compared to PBS controls (thrombus formation) [2]: 18%
PT [3, 6]: not affected
aPTT [3, 6]: affected
PT INR [3, 7]: 0.98 INR
aPTT INR [3, 7]: 1.37 INR
PT INR [3, 8]: 0.93 INR
aPTT INR [3, 8]: 1.49 INR
PT [4, 9]: did not significantly affect PT
aPTT [4, 9]: did prolong aPTT
PT INR [4, 10]: 0.99 INR
aPTT INR [4, 10]: 0.98 INR
PT INR [4, 11]: 1.07 INR
aPTT INR [4, 11]: 1.09 INR
PT INR [4, 12]: 1.08 INR
aPTT INR [4, 12]: 1.29 INR
PT INR [4, 13]: 1.09 INR
aPTT INR [4, 13]: 1.32 INR
PT INR [4, 14]: 0.98 INR
aPTT INR [4, 14]: 1.64 INR
PF-4 mRNA, percent as compared to the PBS + FeCl3 control (thrombus formation) ([5]; + FeCl3): 40%
PF-4 mRNA, percent as compared to the PBS + FeCl3 control (thrombus formation) ([5]; − FeCl3): 27%
